A short description of data set [1]: Brain and plasma concentrations by HPLC after IV administration. The format is in vivo, C57/BL6 mice. To be noted: single IV administration. As to the method: FIGS. 9A-B show GEMM survival and brain/blood plasma concentrations following treatment with NSC682769. […] C57/BL6 mice were administered NSC682769 IV and mean brain and plasma concentrations were determined via HPLC analyses. (n=5).
Protein and mRNA analyses, immunoprecipitation, in vitro bead-coupled inhibitor binding assays and HPLC analyses. Western blot analyses were performed as previously described (Artinian N, et al. (2015) J Biol Chem 290: 19387-19401). Briefly, cells were lysed in RIPA (lysis) buffer containing protease inhibitor cocktail and phosSTOP™ phosphatase inhibitor cocktail (Roche) and extracts resolved by SDS-PAGE. Proteins were transferred to PVDF membranes and incubated with the indicated antibodies. Antigen-antibody complexes were detected using appropriate horseradish peroxidase-conjugated secondary antibodies (GE Healthcare) and enhanced chemiluminescence (Amersham ECL Prime). […] For quantitative RT-PCR, extraction of RNA was performed using Trizol® (Life Technologies). Total RNA was then quantified and integrity assessed using an Agilent 2100 Bioanalyzer (Agilent Technology). […] SYBR® Green quantitative PCR (Millipore Sigma) was performed in triplicate in 96-well optical plates on an ABI Prism 7000 Sequence Detection System (Life Technologies) according to the manufacturer's instructions. […]

Data set [2] has as its system LN229 and GBM39 cells. Description: Annexin V-FITC/PI apoptosis by flow cytometry. Format: cell-based, human. Conditions: LN229 and GBM39, 48 h. From the text: Cells were layered in soft agar to evaluate anchorage-independent growth in the presence of the indicated concentrations of inhibitor and colonies counted following 14 days of growth. Representative crystal violet stained images are shown below. Data represent mean+S.D. of three independent experiments. […] Cells were placed in Boyden chambers and allowed to migrate towards BSA (white bars), vitronectin (light yellow bars), or fibronectin (dark yellow bars) (*, P<0.05; n=3). […] Representative crystal violet stained images are shown (200×). Data represent mean+S.D. of three independent experiments. […] Graphical data shown below represent mean+S.D. (late apoptosis; annexin V-positive, PI-positive) of three independent experiments.
Cell proliferation, clonogenic, migration, invasion and apoptosis assays. Cell proliferation was determined via Cell Titer-Glo® luminescent cell assays (Promega). Clonogenic assays were done by plating a total of 1,000 cells per well in 24-well plates in a total volume of 400 μL using a two-layered soft agar system as previously described (Masri J, et al. (2007) Cancer Res 67: 11712-11720). Cell migration assays were conducted using precoated modified Boyden chambers as previously described (Benavides-Serrato A, et al. (2017) PLoS One 12: e0176599). […]
Background: Flow cytometry measures light scatter and fluorescence of single cells or particles in a stream.

In the case of `COc1ccc(-c2cc(-c3ccccc3)nc3c2CC(=O)Nc2ccccc2-3)cc1OC` [NSC682769], the “Cb/Cp ratios (brain/plasma)” value in data set [1] is “consistent with BBB penetrance”. Moreover, the “Peak value in brain tissue” value in data set [1] (at 5 min post-administration) is 6.22 µg/g. Besides, the Apoptosis result in data set [2] was “enhanced”.

For the origin of these results see patent US20240108634A1, “COMPOSITIONS AND METHODS FOR INHIBITING YAP” (The United States Government as represented by the …, priority 2021, published 2024).
